The text below walks through data of patent US20090226412A1, “AGENT FOR REDUCTION OF BLEEDING IN CEREBROVASCULAR DISORDER” (ONO PHARMACEUTICAL CO., LTD.,, priority 2005, published 2009).

Like-named read-outs stand apart in the source and are kept apart here.

A short description of data set [1]: Influence of PARP inhibitor on bleeding time (rat tail cut). Conditions: male SD rat, intravenous bolus, tail tip cut 5 minutes after administration, 30 minutes at a maximum; compound A 30 mg/kg, heparin 100 U/kg; saline control about 15 minutes.
Method: (§2) A rat (male Sprague Dawley (SD) rat, 7 weeks old; Shimizu Laboratory Supplies Co., Ltd. (SLC))) was anesthetized with urethane (1.2 g/6 mL/kg, i.p.), and then the animal was placed on an incubation mat (Microtemp, Seabrook Medical Systems) set to 37° C. after indwelling a catheter (EMS cutdown tube, JMS Co., Ltd.) made of vinyl chloride in a left femoral vein for administration of a test substance. […] Five minutes after the administration, a tip of the tail was cut at the position of 2 mm with a razor (single-edged feather), and immediately, the tail was immersed in saline (Otsuka normal saline) warmed to 37° C. Finally, the time until the hemorrhage was stopped (30 minutes at a maximum) was measured, which was regarded as bleeding time.
The subject of data set [2] is normal human umbilical cord vein endothelial cell. Description: Effect on vascular endothelial cell death induced by hydrogen peroxide (WST-1 method). Type of data set: cell-based. The following applies: 0.5 mM hydrogen peroxide, 6 hours, compound added 15 minutes before. On the procedure:
A normal human umbilical cord vein endothelial cell (Cat. No. CRL-1730; Dainippon Pharmaceutical Co., Ltd.) was cultured in serum-containing liquid culture medium for vascular endothelial cell (Nissui Pharmaceutical Co., Ltd.) under conditions of 37° C., 5% CO2. The exchange of the culture fluid was performed every other day. The cells proliferated to confluent state were sub-cultured. 5×10^4 cells/mL of cell suspension was disseminated in an amount of 500 μL/well to a gelatin-coated 24 well plate (Iwaki). A few days later, the culture medium was removed after confirming that the cells were proliferated to confluent state, and changed to 480 μL/well of Dulbecco's Modified Eagle's Medium (DMEM; GIBCO-BRL)). The compound A was adjusted to become 50 times larger than the addition final concentration in DMEM after the dissolution of the compound A to dimethyl sulfoxide (DMSO). The sterilization was performed by using 0.22 μm filter for filtration sterilization (Millex, MILLIPORE). […]
The evaluation was performed by means of WST-1 method (modulated MTT method) with the use of Cell Counting Kit (DOJINDO). […] After that, 200 μL/well of the culture supernatant was collected, and then the absorbance (450 nm) was measured. The cell death inhibitory rate of the test substance treated group was calculated, regarding that the cell survival rate of the control group (untreated group) as a standard (100%).
A general note: Tetrazolium dyes change colour on reduction, which living cells bring about.

Data set [3] deals with cerebral hemorrhage model with the use of SHR. Briefly: Cerebral hemorrhage in MCA occlusion-recanalization model, intracerebral hemoglobin by Drabkin's reagent. The following applies: 3 mg/kg/h continuous i.v. for 9 hours right after occlusion; measured 24 hours after MCA occlusion; sham 13.0±1.1, saline 25.5±2.2. Type of data set: in vivo, rat. As to the method: (§1) For the animal, a male spontaneously hypertensive rat (hereinafter abbreviated to SHR) (14 to 15 week old); Japan Charles River) was used. The preparation of middle cerebral artery (hereinafter abbreviated to MCA) occlusion-recanalization model of rat was performed according to the method of Koizumi, et al., (in Stroke 8: 1-7, 1986). In particular, the rat was subjected to anesthetic induction by 4% halothane (halothane vaporizer, Shinano Co., Ltd.) in 30% oxygen/70% air. The anesthesia was maintained by means of 2.5% halothane. The animal was placed in a dorsal position. The dissection of anterior neck midline was performed, the left side of the common carotid artery and the external carotid artery were exfoliated from the surrounding connective tissue around the left carotid artery bifurcation, and then a thread was hooked around the artery to ligate, respectively. Afterwards, the left internal carotid artery was exfoliated from the surrounding connective tissue, and then a thread was hooked around the artery. […] An amount of cerebral hemorrhage was measured 24 hours after the MCA occlusion.
An amount of cerebral hemorrhage was measured on the basis of the content of intracerebral hemoglobin (Hb) as an indicator according to a method of Asahi et al. (J Cereb Blood Flow Metab 20: 452-457, 2000)). […] Afterwards, absorbance was measured at 540 nm of photometry wavelength. […]

Data set [4] shares this test system. Description: Cerebral hemorrhage in MCA occlusion-recanalization model, intracerebral hemoglobin by ELISA. Conditions: 24 hours after MCA occlusion, sham 4.5±0.74, saline 19.6±2.21. Format: in vivo, rat. As to the method:
as §1, with “artery. The range of about 5 mm from the tip of a 4-0 nylon thread for surgery (NC sterilization operation thread, Nichiyo industry Co., Ltd.) (25 mm long) was silicon-coated with an impression material for dentistry (mixture solution of XANTOPREN VL plus and OPTOSIL-XANTOPREN ACTIVATOR, Heraeus Dental Material Co., Ltd.). Then the thread was inserted to the left carotid artery from the left carotid artery bifurcation. Then, the origin part of the left MCA was occluded by means of fixing with a Sugita type clip (Mizuho Medical Industry Co., Ltd.). Nine hours after the occlusion, rat was subjected to anesthetic induction with 4% halothane in 30% oxygen/70% air. The anesthesia was maintained by means of 2.5% halothane.” for “artery.”
In addition, intracerebral hemoglobin content can be also measured by using the following methods, in particular, an enzyme-linked immunosorbent assay (ELISA). […]

For data set [5] the following is noted: rat, in vivo, iv, 30 mg/kg.
Method: as §2

With heparin, in data set [1], the bleeding time is at least 30 min.

`O=C(Cc1n[nH]c(=O)c2c1CCCC2)NCCCCN1CCOCC1` [compound A, 4-(N-(4-(morpholin-4-yl)butyl)carbamoylmethyl)-5,6,7,8-tetrahydrophthalazin-1(2H)-one]: the “inhibitory effect of the vascular endothelial cell disorder (cell death inhibitory rate)” value in data set [2] is listed as “showed an inhibitory effect of the vascular endothelial cell disorder dose-dependently”. For the same compound, the “content of intracerebral hemoglobin” value in data set [3] amounted to 17.7 ± 1.3 µL; in data set [4] (1 mg/kg/h) it was 15.4 ± 2.19 µg/mL; in data set [4] (3 mg/kg/h), 15.5 ± 2.14 µg/mL; in data set [4] (10 mg/kg/h) it was 10.3 ± 1.24 µg/mL. Besides, in data set [5], the bleeding time result was “about 15 minutes”.
